From PMC11650849, “Brain endothelial permeability, transport, and flow assessed over 10 orders of magnitude using the in situ brain perfusion technique” (Fluids and Barriers of the CNS, 2024)
Where two headings read alike, the source gives them in different places.

What was measured:
[1] = Neutral fraction at pH 7.4 calculated from pKa; assay type: physicochemical
[2] = rat, in vivo
[3] = cited from earlier work; for Log Poct: octanol partition coefficient
[4] = cited from earlier work
[5] = rat in vivo measurements; cited from earlier work
[6] = In situ rat brain perfusion (brain uptake Kin, extraction E, BBB PS); settings: for Log Pc: Pc in cm/s; for Log Po: Po in cm/s; for Log PoS: PoS in mL/s/g; for PcS: cerebral cortex, S = physiological saline, AB = artificial blood; for Pc / Po: S assumed 100 cm^2/g
[7] = for Brain Kin: calculated at brain blood flow […] and rat serum fu; for Extraction (unbound) / Brain vascular extraction (total): calculated at brain blood flow […]; for Extraction (unbound): free drug; for Brain vascular extraction (total): with rat serum fu
[8] = rat
[9] = neutral fraction at perfusion fluid pH 7.40, calculated from pKa
[10] = ref Hansch et al. [123], Avdeef [46] or other sources
[11] = intrinsic PS of neutral solute, PoS = PcS/fn, flow 0.1–[…]

Compound	fn (%) [1, 9]	Log Poct [3, 10]	Log Doct pH=7.4 [3, 10]	fu,.p ([4]; rat in vivo measurements)	Brain Vu,br [5]	Log Pc [6]	Log Po [6]	Log PoS [6]	PcS ([6]; flow 0.1–[…])	PoS [6, 11]	Pc [6]	Po [6]	PoS ([6]; brain vascular intrinsic PoS)	other results
O=C[C@@H](O)[C@H](O)[C@@H](O)[C@@H](O)CO [L-Glucose]	100%	−3.18	−3.18	1.00	0.13 mL/g	−6.90	−6.90	−4.90	1.25e-05 mL/s/g	1.25e-05 mL/s/g	–	–	–	Pc [2]: 0.125 ×10⁻⁶ cm/s; Po [2]: 1.25e-07 cm/s
CC(=O)CC(c1ccccc1)c1c(O)c2ccccc2oc1=O (centres unmarked) [Warfarin]	0.01%	–	–	8.0E−03	3.03 mL/g	–	–	–	–	–	–	–	–	Log Pc ([2]; pH 7.4): −4.15; Log PoS ([2]; pH 7.4): 1.71; Pc ([2]; pH 7.4): 70.6 ×10⁻⁶ cm/s; PcS ([2]; pH 7.4): 0.0071 mL/s/g; PoS ([2]; pH 7.4): 51.2 mL/s/g; Log Po ([2]; pH 7.4): −0.29; Po ([2]; pH 7.4): 0.51 cm/s
CC(O)CO (centres unmarked) [1,2-Propanediol]	100%	−1.04	−1.04	1.00	1.04 mL/g	−4.67	−4.67	−2.67	0.0022 mL/s/g	0.00216 mL/s/g	21.6 ×10⁻⁶ cm/s	21.6 ×10⁻⁶ cm/s	0.00216 mL/s/g	Brain Kin [7]: 0.0112 mL/s/g; Extraction (unbound) [7]: 8.6%; Brain vascular extraction (total) [7]: 8.6%
NC(=O)CI [Iodoacetamide]	100%	−0.19	−0.19	0.92	1.11 mL/g	−4.04	−4.04	−2.04	0.0092 mL/s/g	0.00917 mL/s/g	91.7 ×10⁻⁶ cm/s	91.7 ×10⁻⁶ cm/s	0.00917 mL/s/g	–
CO [Methanol]	100%	−0.52	−0.52	1.00	1.06 mL/g	−3.56	−3.56	−1.56	0.028 mL/s/g	0.0278 mL/s/g	278 ×10⁻⁶ cm/s	278 ×10⁻⁶ cm/s	0.0278 mL/s/g	–
Inulin	89.0%	−4.36	−4.13	1.00	0.02 mL/g	−8.12	−8.12	−6.12	7.5e-07 mL/s/g	7.5e-07 mL/s/g	0.0075 ×10⁻⁶ cm/s	0.0075 ×10⁻⁶ cm/s	7.5e-07 mL/s/g	–
O=C(O)CCCc1ccc(N(CCCl)CCCl)cc1 [Chlorambucil]	0.16%	3.41	0.61	0.01	–	–	–	–	–	–	–	–	–	half-life [8]: 1.23 min; half-life ([8]; plasma): 1.2 min; Brain Equilibration t1/2, Measured ([2]; pH 7.4): 0.75 min; Log Pc ([2]; pH 7.4): −3.54; Log PoS ([2]; pH 7.4): 1.26; Pc ([2]; pH 7.4): 287 ×10⁻⁶ cm/s; PcS ([2]; pH 7.4): 0.029 mL/s/g; PoS ([2]; pH 7.4): 18.14 mL/s/g; Log Po ([2]; pH 7.4): −0.74; Po ([2]; pH 7.4): 0.18 cm/s
CCCCNS(=O)(=O)c1ccccc1 [N-butyl-benzene sulfonamide]	100%	2.20	2.20	0.30	10 mL/g	−2.42	−2.42	−0.42	0.38 mL/s/g	0.38 mL/s/g	3800 ×10⁻⁶ cm/s	3800 ×10⁻⁶ cm/s	0.38 mL/s/g	Maximal flow—90% extraction, PcS/2.3 ([7]; pH 7.4): 0.17 mL/s/g
CC(C)NC(C)Cc1ccc(I)cc1 (centres unmarked) [Iofetamine, isopropyl-iodoamphetamine]	3.07%	3.26	1.75	0.25	–	−2.54	−1.02	0.98	0.29 mL/s/g	9.49 mL/s/g	2910 ×10⁻⁶ cm/s	94900 ×10⁻⁶ cm/s	9.49 mL/s/g	half-life [8]: 3.16 min; Maximal flow—90% extraction, PcS/2.3 ([7]; pH 7.4): 0.13 mL/s/g; Peak flow rate for 90% E ([7]; pH 7.4): 7.6 mL/min/g; BBB PcS ([6]; protein-free saline, differing/elevated flow rates, best fit): 0.238 mL/s/g
CCC1(c2ccccc2)C(=O)NC(=O)NC1=O [Phenobarbital]	47.7%	1.53	1.51	0.25	–	–	–	–	–	–	–	–	–	half-life [8]: 7.39 min; Log Pc ([2]; pH 7.4): −4.19; Log PoS ([2]; pH 7.4): −1.86; Pc ([2]; pH 7.4): 65.1 ×10⁻⁶ cm/s; PcS ([2]; pH 7.4): 0.0065 mL/s/g; PoS ([2]; pH 7.4): 0.0136 mL/s/g; Log Po ([2]; pH 7.4): −3.86; Po ([2]; pH 7.4): 0.000136 cm/s
OCCCCO [1,4-Butanediol]	–	–	–	–	–	–	–	–	–	–	–	–	–	fn (%) ([1]; pH 7.4): 100%; half-life [8]: 1.14 min; Log Pc ([2]; pH 7.4): −3.82; Log PoS ([2]; pH 7.4): −1.82; Pc ([2]; pH 7.4): 151 ×10⁻⁶ cm/s; PcS ([2]; pH 7.4): 0.015 mL/s/g; PoS ([2]; pH 7.4): 0.0151 mL/s/g; Log Po ([2]; pH 7.4): −3.82; Po ([2]; pH 7.4): 0.000151 cm/s; Log Doct pH=7.4 [3]: −0.52; fu,.p ([4]; rat): 1.00
CNC(N)=O [Methylurea]	100%	−1.40	−1.40	1.00	1.04 mL/g	−5.72	−5.72	−3.72	0.00019 mL/s/g	0.000191 mL/s/g	1.91 ×10⁻⁶ cm/s	1.91 ×10⁻⁶ cm/s	0.000191 mL/s/g	Brain Kin [7]: 0.000563 mL/s/g; Extraction (unbound) [7]: 0.79%; Brain vascular extraction (total) [7]: 0.79%
Cn1c(=O)c2c(ncn2C)n(C)c1=O [Caffeine]	100%	–	–	–	1.28 mL/g	–	–	–	–	–	–	–	–	half-life ([8]; brain): 0.94 min; Brain Kin [7]: 0.0152 mL/s/g; Extraction (unbound) [7]: 64.7%; Brain vascular extraction (total) [7]: 63.2%
CC(C)Cc1ccc(C(C)C(=O)O)cc1 (centres unmarked) [Ibuprofen]	0.11%	–	–	0.016	3.38 mL/g	–	–	–	–	–	–	–	–	–
OCCCO [1,3 Propanediol]	100%	−0.92	−0.92	1.00	1.02 mL/g	−4.29	−4.29	−2.29	0.0052 mL/s/g	0.00516 mL/s/g	–	–	0.00516 mL/s/g	Pc [2]: 51.6 ×10⁻⁶ cm/s; Po [2]: 5.16e-05 cm/s
